According to PMC8068288, “Novel Thiol Containing Hybrid Antioxidant-Nitric Oxide Donor Small Molecules for Treatment of Glaucoma” (Antioxidants, 2021):
Like-named read-outs stand apart in the source and are kept apart here.

What was measured:
[1] = Ocular biodistribution after SA-9 and SA-9 NPs eye drop; assay type: in vivo; conditions: topical, 30 µL of 2% SA-9 solution, mouse, 1 h after single eye drop of 2% SA-9 solution
NTM-5 cells [2] = experiment: In vitro cell viability (MTT) assay; conditions: NTM-5 cells, 24 h, up to 1000 µM
Protocol: NTM-5 cells (6000 cells/well) were seeded in 96-well plates to confluency. […] The cell viability and proliferation were measured using MTT assays (CellTiter 96® AQueous One Solution Cell Proliferation Assay, Promega Madison, WI, USA) following manufacturer instruction. The experiments were repeated twice with four technical replicates.

[3] = Total nitrite/NO release by Griess assay in buffer (aqueous stability); assay type: physicochemical; conditions: even after 3 days
Protocol: The total nitrite released from the compounds in buffer and in cell supernatant were measured by Griess assay as reported by us previously. In brief, compounds (SA-2, SA-9, and SA-10) in buffer at different concentrations (1 mM, 500 µM, 250 µM 125 µM, 62.5 µM, 31.25 µM, and 15.625 µM) or supernatant collected from Human transformed trabecular meshwork (NTM-5) cells were added to a 96-well plate. 1% Sulphanilamide in 5% phosphoric acid and 0.1% N-1-napthylethylenediamine dihydrochloride (NED) were added to experimental samples sequentially at room temperature and away from light. SIN-1 was used as reference standard. […]

[4] = Hypochlorous acid (HOCl) radical scavenging assay (TNB) in buffer; assay type: biochemical
Protocol: This assay used the redox reaction between 5-thio-2-nitrobenzoic acid (TNB) and HOCl to form dithio-TNB. Using the method described previously, we assessed the % TNB remaining with or without treatment with SA compounds. Compounds SA-2, SA-9, and SA-10 were used in concentrations ranging from 0.1 µM, 1 µM, 10 µM, 100 µM, and 1000 µM. Lipoic acid (1 mM) was used as positive control.

NTM-5 cells [5] = experiment: Superoxide scavenging ratio in NTM-5 cell supernatant (pyrogallol assay), with or without TBHP; assay type: cell-based, human; conditions: for AUC0-3h of superoxide scavenging ratio: NTM-5 cell supernatant, 18 h treatment, 0.1-1000 µM
Protocol: The ROS scavenging ratio was determined using a chemical assay where WST-1 was used as superoxide scavenger produced by pyrogallol following a reported protocol. Briefly, the superoxide anion radical scavenging activity was determined spectrophotometrically by measuring the formation of WST-1 formazan at 450 nm. WST-1 (40 µL, 50 µM) was added to the compounds (or corresponding solution) in a final volume of 160 µL in 50 mM ammonium hydrogen carbonate buffer, 0.5 mM EDTA, pH 9.3. Reaction was launched by adding 40 µL 1 mM pyrogallol. The operation was based on the 96-well microplate, and measurement was performed at different time points under 37 °C by Cytation5 Microplate Reader. Baicalein (1 mM) was used as positive control. Compounds SA-2, SA-9, and SA-10 were used in concentrations ranging from 1 µM, 10 µM, 100 µM, and 1000 µM. The superoxide anion radical scavenging ratio % was calculated according to the following formula:Scavenging ratio (%) = A0 − (A1 − A2)/A0 × 100% […]
The experiments were repeated twice with four technical replicates.
Figure 2 Superoxide scavenging ability of SA compounds in buffer and cells. (a) The % of superoxide scavenging response from 1 mM concentration of SA-2, SA-9, and SA-10 in pyrogallol (Pyr, 1 mM) induced superoxide induction assay at different time points in buffer. The AUC0–2.5 h for SA-2, SA-9, and SA-10 were 1592 ± 37.87, 1355 ± 42.62, and 2350 ± 69.26, respectively. (b) Comparison of the % ROS scavenging activity of SA-2, SA-9, and SA-10 with control after 15 min of treatment of pyrogallol. (c) The superoxide scavenging ratio (%) after 18 h treatment of 10 µM concentration of SA-2, SA-9, and SA-10 to NTM-5 cell supernatant using pyrogallol induced superoxide induction assay at different time points. (d) The superoxide scavenging ratio (%) of 10 µM concentration of SA-2, SA-9, and SA-10 in NTM-5 cell supernatant. The cells were previously treated with 5.5 mM of TBHP for 30 min followed by SA compounds and incubated for 18 h. Control is untreated cells. Three technical replicates were used for each experiment and all experiments were repeated 2 times. * p < 0.05, ** p < 0.005, *** p < 0.001, **** p < 0.0001, One-way ANOVA for (b), and two-way ANOVA for (c,d).
Figure S1: Superoxide scavenging ability of SA compounds in buffer and cells. a) The % of superoxide scavenging response from different concentrations of SA-2, SA-9 and SA-10 in pyrogallol (1 µM, 10 µM, 100 µM and 1,000 µM) induced superoxide induction assay at 15 minutes time point in buffer solution. The […]
superoxide scavenging ratio (%) after 18h treatment of different concentrations (0.1 µM, 1 µM, 10 µM, 100 µM and 1,000 µM) of SA-2, SA-9 and SA-10 to NTM-5 cell supernatant with or without TBHP (5.5 mM) using pyrogallol induced superoxide induction assay at 3h time point. Control is untreated cells. The cells were previously treated with 5.5 mM of TBHP for 30 minutes followed by SA compounds and TBHP and incubated for 18h. Control is untreated cells. e) The AUC0-3h for SA-2, SA-9 and SA-10 were 18902 ± 2714, […]
for each experiment and all experiments were repeated 2 times. N = 3.
(1 picture or pasted object on this page, not shown here)

[6] = Superoxide anion radical scavenging assay (pyrogallol/WST-1) in buffer; assay type: biochemical
Protocol: The ROS scavenging ratio was determined using a chemical assay where WST-1 was used as superoxide scavenger produced by pyrogallol following a reported protocol. Briefly, the superoxide anion radical scavenging activity was determined spectrophotometrically by measuring the formation of WST-1 formazan at 450 nm. WST-1 (40 µL, 50 µM) was added to the compounds (or corresponding solution) in a final volume of 160 µL in 50 mM ammonium hydrogen carbonate buffer, 0.5 mM EDTA, pH 9.3. Reaction was launched by adding 40 µL 1 mM pyrogallol. The operation was based on the 96-well microplate, and measurement was performed at different time points under 37 °C by Cytation5 Microplate Reader. Baicalein (1 mM) was used as positive control. Compounds SA-2, SA-9, and SA-10 were used in concentrations ranging from 1 µM, 10 µM, 100 µM, and 1000 µM. The superoxide anion radical scavenging ratio % was calculated according to the following formula:Scavenging ratio (%) = A0 − (A1 − A2)/A0 × 100%

Question: For `Cl.[NH-]c1c[n+](C2CCSCC2)no1` [SA-9, (3-(tetrahydro-2H-thiopyran-4-yl)-1,2,3-oxadiazol-3-ium-5-yl)amide hydrochloride], which concentration at 1 h ([1]; choroid + sclera, read-out: concentration of SA-9 in choroid + sclera) is on record?
Answer: The concentration at 1 h was 28900 ± 2500 ng/g.

Question: What about the concentration at 1 h ([1]; lens, read-out: concentration of SA-9 in lens) of the same compound?
Answer: Its concentration at 1 h is 20500 ± 8300 ng/g.

Question: What about the concentration at 1 h ([1]; optic nerve, read-out: concentration of SA-9 in ON) of the same compound?
Answer: The concentration at 1 h was 1300 ± 90 ng/g.

Question: And the concentration at 1 h ([1]; retina, read-out: concentration of SA-9 in retina)?
Answer: Its concentration at 1 h is 8250 ± 10200 ng/g.

Question: And the cytotoxicity (NTM-5 cells [2])?
Answer: The cytotoxicity was “no cytotoxicity”.

Question: And the “NO release in buffer” value [3]?
Answer: Its value is “did not observe any NO release”.

Question: What about the “fold more potent than lipoic acid in HOCl scavenging” value ([4]; 0.1 µM vs. 1 mM lipoic acid, 30 min) of the same compound?
Answer: Its value is 10,000 fold.

Question: What about the “duration of HOCl scavenging effect” value ([4]; 0.1 µM–1000 µM in buffer) of the same compound?
Answer: Its value is > 1 h.

Question: What about the “superoxide scavenging ability (ratio)” value (NTM-5 cells [5]; 10 µM for 18 h, NTM-5 cells insulted with TBHP, TBHP alone 2.5%) of the same compound?
Answer: The value was 20–25%.

Question: What about the “fold prevention of the decrease in superoxide scavenging ability vs TBHP alone” value (NTM-5 cells [5]; 10 µM for 18 h, TBHP-treated NTM-5 cells) of the same compound?
Answer: Its value is ~ 10 fold.

Question: What about the “AUC0-3h of superoxide scavenging ratio” value (NTM-5 cells [5]; with TBHP 5.5 mM) of the same compound?
Answer: Its value is 14120 ± 2023.

Question: What about the “AUC0-3h of superoxide scavenging ratio” value (NTM-5 cells [5]; without TBHP) of the same compound?
Answer: Its value is 21155 ± 1099.

Question: What about the “AUC0–2.5 h of % superoxide scavenging response” value ([6]; 1 mM compound, pyrogallol 1 mM, buffer) of the same compound?
Answer: Its value is 1355 ± 42.62.

Question: And the “earliest time of superoxide (O2−) radical scavenging” value ([6]; buffer solution and TM cells)?
Answer: Its value is 7 min.

Question: What about the superoxide radicals scavenged ([6]; buffer, dose response 1-1000 µM) of the same compound?
Answer: Its superoxide radicals scavenged is 16–40%.

Question: And the “AUC0-15 of % superoxide scavenging response” value ([6]; different concentrations 1-1000 µM, 15 minutes time point, buffer)?
Answer: The value was 5972± 834.9.
